Test results published in article PMC10004634 (PLOS ONE, 2023).
pIC50: −log10 of the molar value. Where two headings read alike, the source gives them in different places.

Columns and labels:
ANKK1 = ANKK1 (Homo sapiens, UniProt Q8NFD2); experiment: biochemical; parameters: KINOMEscan scanMAX competition binding, DNA-tagged kinases, qPCR read-out, percent control at 300 nM
[1] = biological target: T1, ABL1(F317L)-phosphorylated (Homo sapiens, UniProt P00519, F317L); experiment: biochemical; parameters: KINOMEscan scanMAX competition binding, DNA-tagged kinases, qPCR read-out, percent control at 300 nM
T1 construct: phosphorylated

CSNK1D = CSNK1D (Homo sapiens, UniProt P48730); experiment: biochemical; parameters: KINOMEscan scanMAX competition binding, DNA-tagged kinases, qPCR read-out, percent control at 300 nM
MUSK = MUSK (Homo sapiens, UniProt O15146); experiment: biochemical; parameters: KINOMEscan scanMAX competition binding, DNA-tagged kinases, qPCR read-out, percent control at 300 nM
TRPM6 = TRPM6 (Homo sapiens, UniProt Q9BX84); experiment: biochemical; parameters: KINOMEscan scanMAX competition binding, DNA-tagged kinases, qPCR read-out, percent control at 300 nM
NIM1 = biological target: T2, NIM1 (Homo sapiens, UniProt Q8IY84); experiment: biochemical; parameters: KINOMEscan scanMAX competition binding, DNA-tagged kinases, qPCR read-out, percent control at 300 nM
T2 construct: gene NIM1K

GSK3A = GSK3A (Homo sapiens, UniProt P49840); experiment: biochemical; parameters: KINOMEscan scanMAX competition binding, DNA-tagged kinases, qPCR read-out, percent control at 300 nM
ERK1 = biological target: T3, ERK1 (Homo sapiens, UniProt P27361); experiment: biochemical; parameters: KINOMEscan scanMAX competition binding, DNA-tagged kinases, qPCR read-out, percent control at 300 nM
T3 construct: gene MAPK3

CLK1 = CLK1 (Homo sapiens, UniProt P49759); experiment: biochemical; parameters: KINOMEscan scanMAX competition binding, DNA-tagged kinases, qPCR read-out, percent control at 300 nM
EPHB3 = EPHB3 (Homo sapiens, UniProt P54753); experiment: biochemical; parameters: KINOMEscan scanMAX competition binding, DNA-tagged kinases, qPCR read-out, percent control at 300 nM
[2] = biological target: T4, ABL1(H396P)-nonphosphorylated (Homo sapiens, UniProt P00519, H396P); experiment: biochemical; parameters: KINOMEscan scanMAX competition binding, DNA-tagged kinases, qPCR read-out, percent control at 300 nM
T4 construct: nonphosphorylated

LIMK2 = LIMK2 (Homo sapiens, UniProt P53671); experiment: biochemical; parameters: KINOMEscan scanMAX competition binding, DNA-tagged kinases, qPCR read-out, percent control at 300 nM
SRPK2 = SRPK2 (Homo sapiens, UniProt P78362); experiment: biochemical; parameters: KINOMEscan scanMAX competition binding, DNA-tagged kinases, qPCR read-out, percent control at 300 nM
AMPK-alpha1 = biological target: T5, AMPK-alpha1 (Homo sapiens, UniProt Q13131); experiment: biochemical; parameters: KINOMEscan scanMAX competition binding, DNA-tagged kinases, qPCR read-out, percent control at 300 nM
T5 construct: gene PRKAA1

[3] = biological target: T6, RSK1(Kin.Dom.2-C-terminal) (Homo sapiens, UniProt Q15418); experiment: biochemical; parameters: KINOMEscan scanMAX competition binding, DNA-tagged kinases, qPCR read-out, percent control at 300 nM
T6 construct: gene RPS6KA1; Kin.Dom.2-C-terminal

TEC = biological target: T7, TEC (Homo sapiens, UniProt P42680); experiment: LanthaScreen Eu kinase binding assay; parameters: purchased Thermo Fisher Scientific (Invitrogen LanthaScreen service); settings: 60 min preincubation
T7 sequence (P42680 1-631): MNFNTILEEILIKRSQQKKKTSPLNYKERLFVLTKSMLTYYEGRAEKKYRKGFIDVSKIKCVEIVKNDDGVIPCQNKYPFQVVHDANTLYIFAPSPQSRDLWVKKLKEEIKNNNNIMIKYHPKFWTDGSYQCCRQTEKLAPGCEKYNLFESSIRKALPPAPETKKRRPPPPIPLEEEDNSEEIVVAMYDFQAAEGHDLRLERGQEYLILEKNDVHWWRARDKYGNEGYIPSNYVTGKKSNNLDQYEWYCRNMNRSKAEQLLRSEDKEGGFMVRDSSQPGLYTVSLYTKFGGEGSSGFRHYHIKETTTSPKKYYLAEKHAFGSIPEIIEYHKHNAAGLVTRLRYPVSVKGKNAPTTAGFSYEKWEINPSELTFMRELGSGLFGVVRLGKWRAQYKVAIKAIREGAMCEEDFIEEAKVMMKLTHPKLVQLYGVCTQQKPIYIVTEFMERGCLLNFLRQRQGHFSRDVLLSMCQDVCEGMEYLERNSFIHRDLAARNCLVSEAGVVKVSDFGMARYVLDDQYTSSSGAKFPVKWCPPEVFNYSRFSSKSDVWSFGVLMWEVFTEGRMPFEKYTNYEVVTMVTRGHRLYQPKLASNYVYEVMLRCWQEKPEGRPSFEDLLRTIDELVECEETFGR
Description: In all the assays, each test compound was preincubated with peptide/kinase mixture or kinase/antibody mixture for 60 min at room temperature before adding the ATP solution or AlexaFluor labeled Tracer to initiate the 60-min incubation of the reactants.

[4] = read-out: Percent control / Acalabrutinib
[5] = read-out: Percent control / Ibrutinib
[6] = read-out: Percent control / Tirabrutinib
[7] = read-out: Percent control / Zanubrutinib

T2 sequence (Q8IY84 whole entry): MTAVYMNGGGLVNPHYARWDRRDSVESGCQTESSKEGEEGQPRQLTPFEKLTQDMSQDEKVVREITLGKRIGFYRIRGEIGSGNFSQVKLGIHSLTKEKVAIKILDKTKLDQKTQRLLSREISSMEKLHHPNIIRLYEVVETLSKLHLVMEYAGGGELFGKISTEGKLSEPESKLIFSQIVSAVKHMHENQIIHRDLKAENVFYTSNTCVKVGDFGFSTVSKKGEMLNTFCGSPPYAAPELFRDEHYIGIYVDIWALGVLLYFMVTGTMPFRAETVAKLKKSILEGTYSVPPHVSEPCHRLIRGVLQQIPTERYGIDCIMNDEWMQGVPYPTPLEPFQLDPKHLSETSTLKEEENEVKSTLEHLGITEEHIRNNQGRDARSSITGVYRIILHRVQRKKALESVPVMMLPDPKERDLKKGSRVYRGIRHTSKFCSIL
Chain of MUSK (O15146 whole entry): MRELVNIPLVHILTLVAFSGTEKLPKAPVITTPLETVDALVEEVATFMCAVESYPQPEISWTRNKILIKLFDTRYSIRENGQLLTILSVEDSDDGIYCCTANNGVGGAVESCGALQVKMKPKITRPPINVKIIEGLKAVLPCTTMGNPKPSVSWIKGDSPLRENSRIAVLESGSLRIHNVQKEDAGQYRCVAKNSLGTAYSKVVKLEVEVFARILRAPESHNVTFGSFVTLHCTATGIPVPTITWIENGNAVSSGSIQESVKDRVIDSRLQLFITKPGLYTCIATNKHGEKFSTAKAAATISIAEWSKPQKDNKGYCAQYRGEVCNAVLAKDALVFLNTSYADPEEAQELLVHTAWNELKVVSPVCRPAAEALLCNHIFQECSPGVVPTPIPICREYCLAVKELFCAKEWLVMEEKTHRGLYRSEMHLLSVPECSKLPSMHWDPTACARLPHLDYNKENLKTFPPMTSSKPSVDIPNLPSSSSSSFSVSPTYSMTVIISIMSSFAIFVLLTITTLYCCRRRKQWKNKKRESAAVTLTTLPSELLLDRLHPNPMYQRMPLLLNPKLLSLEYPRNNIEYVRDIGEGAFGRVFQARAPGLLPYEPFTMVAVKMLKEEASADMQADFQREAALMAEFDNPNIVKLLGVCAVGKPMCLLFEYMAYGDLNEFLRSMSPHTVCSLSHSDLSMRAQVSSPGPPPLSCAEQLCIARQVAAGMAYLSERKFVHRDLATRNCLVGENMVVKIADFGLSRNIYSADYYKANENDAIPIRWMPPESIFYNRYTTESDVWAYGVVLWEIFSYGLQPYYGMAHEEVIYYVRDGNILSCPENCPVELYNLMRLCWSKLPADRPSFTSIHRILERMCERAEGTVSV
Chain of CLK1 (P49759 whole entry): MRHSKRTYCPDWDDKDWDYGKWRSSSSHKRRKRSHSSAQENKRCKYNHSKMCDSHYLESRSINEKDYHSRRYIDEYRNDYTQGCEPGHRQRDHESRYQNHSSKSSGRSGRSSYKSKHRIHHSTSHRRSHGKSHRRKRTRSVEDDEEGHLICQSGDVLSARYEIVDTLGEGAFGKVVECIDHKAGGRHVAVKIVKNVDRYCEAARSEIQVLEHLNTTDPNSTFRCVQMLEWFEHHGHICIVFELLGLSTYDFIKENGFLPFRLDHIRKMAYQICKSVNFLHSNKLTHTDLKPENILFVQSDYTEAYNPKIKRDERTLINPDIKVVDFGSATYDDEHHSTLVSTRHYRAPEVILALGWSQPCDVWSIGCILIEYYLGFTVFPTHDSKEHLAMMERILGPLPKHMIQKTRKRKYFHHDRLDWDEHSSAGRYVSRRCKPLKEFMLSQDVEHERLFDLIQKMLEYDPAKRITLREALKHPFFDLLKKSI
T5 sequence (Q13131 whole entry): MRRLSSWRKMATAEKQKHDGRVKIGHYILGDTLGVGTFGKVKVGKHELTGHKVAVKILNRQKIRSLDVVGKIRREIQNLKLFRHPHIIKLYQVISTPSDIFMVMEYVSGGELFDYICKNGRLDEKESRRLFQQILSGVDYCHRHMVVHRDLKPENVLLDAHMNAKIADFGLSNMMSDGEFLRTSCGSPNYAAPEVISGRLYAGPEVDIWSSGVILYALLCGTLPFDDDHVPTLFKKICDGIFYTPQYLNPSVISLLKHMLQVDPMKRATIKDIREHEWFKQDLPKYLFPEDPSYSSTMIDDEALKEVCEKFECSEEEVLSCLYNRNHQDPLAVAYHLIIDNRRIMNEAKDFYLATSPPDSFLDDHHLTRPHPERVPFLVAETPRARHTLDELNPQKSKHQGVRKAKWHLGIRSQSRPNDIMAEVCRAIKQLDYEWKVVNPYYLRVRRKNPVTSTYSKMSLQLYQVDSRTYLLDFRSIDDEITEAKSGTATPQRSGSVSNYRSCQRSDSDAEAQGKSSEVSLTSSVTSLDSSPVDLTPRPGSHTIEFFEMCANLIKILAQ
T6 sequence (Q15418 whole entry): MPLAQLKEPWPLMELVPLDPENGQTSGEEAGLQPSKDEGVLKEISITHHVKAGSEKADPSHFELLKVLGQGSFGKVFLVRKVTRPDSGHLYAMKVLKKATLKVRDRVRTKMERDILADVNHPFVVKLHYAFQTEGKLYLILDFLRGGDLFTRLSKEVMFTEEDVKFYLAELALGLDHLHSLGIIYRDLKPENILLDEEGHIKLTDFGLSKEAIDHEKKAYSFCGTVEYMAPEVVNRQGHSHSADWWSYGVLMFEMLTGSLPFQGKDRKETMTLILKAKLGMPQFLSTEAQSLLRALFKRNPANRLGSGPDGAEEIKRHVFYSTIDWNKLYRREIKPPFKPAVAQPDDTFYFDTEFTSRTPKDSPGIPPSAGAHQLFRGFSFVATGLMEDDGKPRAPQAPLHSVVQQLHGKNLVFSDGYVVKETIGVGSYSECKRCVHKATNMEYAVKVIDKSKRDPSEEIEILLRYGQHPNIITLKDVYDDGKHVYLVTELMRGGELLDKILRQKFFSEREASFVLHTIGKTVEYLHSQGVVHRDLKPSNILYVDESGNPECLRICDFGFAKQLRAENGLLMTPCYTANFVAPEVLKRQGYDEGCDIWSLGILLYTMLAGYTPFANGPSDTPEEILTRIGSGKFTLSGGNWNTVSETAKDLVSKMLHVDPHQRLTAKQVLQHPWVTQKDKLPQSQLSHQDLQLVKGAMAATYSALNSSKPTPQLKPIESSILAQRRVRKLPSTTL
Chain of ANKK1 (Q8NFD2 whole entry): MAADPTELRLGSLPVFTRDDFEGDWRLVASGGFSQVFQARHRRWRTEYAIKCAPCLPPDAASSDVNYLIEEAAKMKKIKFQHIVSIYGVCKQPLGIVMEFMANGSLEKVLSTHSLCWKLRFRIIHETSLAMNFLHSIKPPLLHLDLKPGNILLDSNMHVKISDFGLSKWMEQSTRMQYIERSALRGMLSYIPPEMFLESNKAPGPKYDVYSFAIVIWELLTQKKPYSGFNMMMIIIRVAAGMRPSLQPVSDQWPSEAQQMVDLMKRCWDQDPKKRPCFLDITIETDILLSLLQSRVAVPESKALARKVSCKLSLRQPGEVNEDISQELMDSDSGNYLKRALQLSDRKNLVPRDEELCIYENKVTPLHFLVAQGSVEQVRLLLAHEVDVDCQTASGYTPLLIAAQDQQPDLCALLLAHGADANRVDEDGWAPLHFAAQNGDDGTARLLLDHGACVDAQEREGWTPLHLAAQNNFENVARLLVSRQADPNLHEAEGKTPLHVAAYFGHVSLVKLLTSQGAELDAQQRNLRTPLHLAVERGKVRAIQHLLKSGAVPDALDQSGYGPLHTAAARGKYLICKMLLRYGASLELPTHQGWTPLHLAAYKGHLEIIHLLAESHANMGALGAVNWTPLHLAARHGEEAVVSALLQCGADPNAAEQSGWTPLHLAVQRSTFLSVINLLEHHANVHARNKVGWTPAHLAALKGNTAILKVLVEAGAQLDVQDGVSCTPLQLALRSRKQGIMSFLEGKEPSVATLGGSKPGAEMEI
Chain of GSK3A (P49840 whole entry): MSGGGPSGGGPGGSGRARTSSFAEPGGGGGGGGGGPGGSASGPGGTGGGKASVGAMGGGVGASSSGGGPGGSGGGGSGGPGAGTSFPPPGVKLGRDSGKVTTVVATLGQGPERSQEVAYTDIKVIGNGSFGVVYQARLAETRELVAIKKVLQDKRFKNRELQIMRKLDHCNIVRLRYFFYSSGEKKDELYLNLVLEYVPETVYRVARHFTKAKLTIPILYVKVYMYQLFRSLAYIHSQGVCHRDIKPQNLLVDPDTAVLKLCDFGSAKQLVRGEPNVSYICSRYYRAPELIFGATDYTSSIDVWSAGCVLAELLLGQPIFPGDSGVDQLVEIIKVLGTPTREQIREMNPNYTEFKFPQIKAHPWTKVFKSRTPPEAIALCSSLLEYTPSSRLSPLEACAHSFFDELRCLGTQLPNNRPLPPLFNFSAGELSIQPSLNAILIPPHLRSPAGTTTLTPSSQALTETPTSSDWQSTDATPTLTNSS
Chain of LIMK2 (P53671 whole entry): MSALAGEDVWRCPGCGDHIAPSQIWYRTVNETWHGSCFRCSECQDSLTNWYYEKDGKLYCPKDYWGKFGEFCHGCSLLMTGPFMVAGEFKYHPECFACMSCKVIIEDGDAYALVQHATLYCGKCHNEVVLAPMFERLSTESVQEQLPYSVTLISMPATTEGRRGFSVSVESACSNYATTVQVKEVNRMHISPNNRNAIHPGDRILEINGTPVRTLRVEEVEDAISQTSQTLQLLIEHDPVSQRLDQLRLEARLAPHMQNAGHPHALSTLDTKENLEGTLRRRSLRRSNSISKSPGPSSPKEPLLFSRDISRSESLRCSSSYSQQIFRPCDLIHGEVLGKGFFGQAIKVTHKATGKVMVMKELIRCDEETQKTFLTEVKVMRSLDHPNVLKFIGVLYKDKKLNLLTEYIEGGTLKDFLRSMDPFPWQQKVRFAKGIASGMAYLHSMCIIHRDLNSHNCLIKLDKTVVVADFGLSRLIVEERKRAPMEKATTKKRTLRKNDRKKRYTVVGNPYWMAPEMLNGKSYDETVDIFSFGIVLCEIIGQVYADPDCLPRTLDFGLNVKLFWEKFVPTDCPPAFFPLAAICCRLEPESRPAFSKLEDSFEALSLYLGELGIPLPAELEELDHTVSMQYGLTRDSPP

Molecule `CC#CC(=O)N1CCC[C@H]1c1nc(-c2ccc(C(=O)Nc3ccccn3)cc2)c2c(N)nccn12` [Acalabrutinib] has a remaining binding at 0.3 µM (ANKK1; [4]) of 58%, a remaining binding at 0.3 µM [1, 4] of 81% and a remaining binding at 0.3 µM (CSNK1D; [4]) of 85%. It also gave a remaining binding at 0.3 µM (MUSK; [4]) of 82%, a remaining binding at 0.3 µM (TRPM6; [4]) of 96% and a remaining binding at 0.3 µM (NIM1; [4]) of 99%. For the same molecule, the remaining binding at 0.3 µM (GSK3A; [4]) was 74%, the remaining binding at 0.3 µM (ERK1; [4]) was 92% and the remaining binding at 0.3 µM (CLK1; [4]) was 92%. For the same molecule, the remaining binding at 0.3 µM (EPHB3; [4]) was 91%, the remaining binding at 0.3 µM [2, 4] was 85% and the remaining binding at 0.3 µM (LIMK2; [4]) was 96%. It also gave a remaining binding at 0.3 µM (SRPK2; [4]) of 90%.
With `C=CC(=O)N1CCC[C@@H](n2nc(-c3ccc(Oc4ccccc4)cc3)c3c(N)ncnc32)C1` [Ibrutinib] the remaining binding at 0.3 µM (AMPK-alpha1; [5]) was 92% and the remaining binding at 0.3 µM [2, 5] was 31%.
`CC#CC(=O)N1CC[C@@H](n2c(=O)n(-c3ccc(Oc4ccccc4)cc3)c3c(N)ncnc32)C1` [Tirabrutinib] was tested, and the remaining binding at 0.3 µM [1, 6] was 57% and the remaining binding at 0.3 µM [3, 6] was 88%.
With `C=CC(=O)N1CCC([C@@H]2CCNc3c(C(N)=O)c(-c4ccc(Oc5ccccc5)cc4)nn32)CC1` [Zanubrutinib] the pIC50 (TEC) was 8.35, the remaining binding at 0.3 µM (ANKK1; [7]) was 100% and the remaining binding at 0.3 µM (CSNK1D; [7]) was 100%. For the same molecule, the remaining binding at 0.3 µM (MUSK; [7]) was 96%, the remaining binding at 0.3 µM [3, 7] was 92% and the remaining binding at 0.3 µM (TRPM6; [7]) was 63%. It also gave a remaining binding at 0.3 µM (NIM1; [7]) of 97%, a remaining binding at 0.3 µM (GSK3A; [7]) of 98% and a remaining binding at 0.3 µM (ERK1; [7]) of 87%. It also gave a remaining binding at 0.3 µM (CLK1; [7]) of 90%, a remaining binding at 0.3 µM (EPHB3; [7]) of 96% and a remaining binding at 0.3 µM (AMPK-alpha1; [7]) of 88%. For the same molecule, the remaining binding at 0.3 µM (LIMK2; [7]) was 92% and the remaining binding at 0.3 µM (SRPK2; [7]) was 96%.
